Data: US8247211B2, “Glycopeptide antibiotics” (American Cyanamid Company, priority 2001, dated 2012)
In brackets after ≈: the same amount, converted by molar mass.

Assays:
Experiment in all cases: In vitro antibacterial evaluation: minimum inhibitory concentration (MIC), broth dilution method
Format in all cases: cell-based
Enterococcus sp. = conditions: broth dilution, 5×10^5 CFU/mL, 18 hours at 35° C.
Method in brief: (§1)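 NCCLS M7-A2 broth dilution; Muller-Hinton II […]; 5×10^5 CFU/mL; 64-0.06 μg/mL. MIC = lowest concentration with no growth.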

Escherichia coli = conditions: 5×10^5 CFU/mL, 18 hours at 35° C.
Method in brief: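 Inoculum: 5×10^5 CFU/mL. Range: 64-0.06 μg/mL. Medium: Muller-Hinton II […]; NCCLS M7-A2 broth dilution. Endpoint: lowest concentration inhibiting growth. Strains include methicillin-, penicillin- and/or vancomycin-resistant clinical isolates.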

Staphylococcus sp. = conditions: for MIC Staphylococcus aureus (ATCC 29213): strain ATCC 29213; for MIC Staphylococcus aureus (GC 1131): strain GC 1131; for MIC Staphylococcus aureus (GC 3051): strain GC 3051; for MIC Staphylococcus aureus (GC 3053): strain GC 3053; for MIC Staphylococcus aureus (GC 4541): strain GC 4541; for MIC Staphylococcus aureus (GC 4542): strain GC 4542; for MIC Staphylococcus aureus-SMITH (GC 4543): strain GC 4543; for MIC Staphylococcus aureus (GC 4544): strain GC 4544; for MIC Staphylococcus aureus (GC 4545): strain GC 4545; for MIC Staphylococcus haemolyticus (GC 4546): strain GC 4546; for MIC Coagulase Negative Staphylococcus (GC 4547): strain GC 4547; for MIC Coagulase Negative Staphylococcus (GC 4548): strain GC 4548; for MIC Coagulase Negative Staphylococcus (GC 4549): strain GC 4549; for MIC Coagulase Negative Staphylococcus (GC 4551): strain GC 4551; for MIC Coagulase Negative Staphylococcus (GC 6257): strain GC 6257
Method in brief: as §1

Streptococcus sp. = conditions: broth dilution, 5×10^5 CFU/mL, 18 hours at 35° C.
Method in brief: as §1

[1] = broth dilution, 18 hours at 35° C.

## CCCCOC(=O)CCC1OCC2OC(OC3C(CO)OC(Oc4ccc(CC5NC(=O)C(C(C)c6ccccc6)NC(=O)CNC(=O)C(CO)NC(=O)C(C(O)C6CNC(=N)N6C6OC(CO)C(O)C(O)C6O)NC(=O)C(C(O)C6CNC(=N)N6)NC5=O)cc4)C(O)C3O)C(O)C(O)C2O1 (stereo not drawn) [Example 114, Cyclo[glycyl-β-methylphenylalanyl-O-[4-O-[4,6-O-(4-butoxy-4-oxobutylidene)hexopyranosyl]-hexopyranosyl]tyrosyl-3-(2-iminoimidazolidin-4-yl)seryl-3-(3-hexopyranosyl-2-iminoimidazolidin-4-yl)serylseryl]]
Enterococcus sp.
  MIC Enterococccus avium (GC 4558): 8 µg/mL (≈ 5.57 µM)
  MIC Enterococccus faecalis (ATCC 29212): 4 µg/mL (≈ 2.79 µM)
  MIC Enterococccus faecalis (GC 2691): 4 µg/mL (≈ 2.79 µM)
  MIC Enterococccus faecalis (GC 3059): 8 µg/mL (≈ 5.57 µM)
  MIC Enterococccus faecalis (GC 4552): 4 µg/mL (≈ 2.79 µM)
  MIC Enterococccus faecalis (GC 4553): 8 µg/mL (≈ 5.57 µM)
  MIC Enterococccus faecalis (GC 4554): 4 µg/mL (≈ 2.79 µM)
  MIC Enterococccus faecalis (GC 6189): 4 µg/mL (≈ 2.79 µM)
  MIC Enterococccus faecium (GC 2243): 4 µg/mL (≈ 2.79 µM)
  MIC Enterococccus faecium (GC 4556): 4 µg/mL (≈ 2.79 µM)
  MIC Enterococccus faecium (GC 4557): 2 µg/mL (≈ 1.39 µM)
  MIC Enterococcus faecalis (GC 2242): 4 µg/mL (≈ 2.79 µM)
Escherichia coli
  MIC Escherichia coli (ATCC 25922): 64 µg/mL (≈ 44.6 µM)
  MIC Escherichia coli (GC 4559): 64 µg/mL (≈ 44.6 µM)
  MIC Escherichia coli (GC 4560): 1 µg/mL (≈ 0.697 µM)
Staphylococcus sp.
  MIC Staphylococcus aureus (ATCC 29213): 2 µg/mL (≈ 1.39 µM)
  MIC Staphylococcus aureus (GC 1131): 2 µg/mL (≈ 1.39 µM)
  MIC Staphylococcus aureus (GC 3051): 2 µg/mL (≈ 1.39 µM)
  MIC Staphylococcus aureus (GC 3053): 2 µg/mL (≈ 1.39 µM)
  MIC Staphylococcus aureus (GC 4541): 2 µg/mL (≈ 1.39 µM)
  MIC Staphylococcus aureus (GC 4542): 1 µg/mL (≈ 0.697 µM)
  MIC Staphylococcus aureus (GC 4544): 2 µg/mL (≈ 1.39 µM)
  MIC Staphylococcus aureus (GC 4545): 2 µg/mL (≈ 1.39 µM)
  MIC Staphylococcus haemolyticus (GC 4546): 1 µg/mL (≈ 0.697 µM)
  MIC Coagulase Negative Staphylococcus (GC 4547): 2 µg/mL (≈ 1.39 µM)
  MIC Coagulase Negative Staphylococcus (GC 4548): 1 µg/mL (≈ 0.697 µM)
  MIC Coagulase Negative Staphylococcus (GC 4549): 2 µg/mL (≈ 1.39 µM)
  MIC Coagulase Negative Staphylococcus (GC 4551): 2 µg/mL (≈ 1.39 µM)
  MIC Coagulase Negative Staphylococcus (GC 6257): 1 µg/mL (≈ 0.697 µM)
Staphylococcus sp.; [1]
  MIC Staphylococcus aureus (ATCC 29213): 2 µg/mL (≈ 1.39 µM)
  MIC Staphylococcus aureus (GC 1131): 2 µg/mL (≈ 1.39 µM)
  MIC Staphylococcus aureus (GC 3051): 2 µg/mL (≈ 1.39 µM)
  MIC Staphylococcus aureus (GC 3053): 2 µg/mL (≈ 1.39 µM)
  MIC Staphylococcus aureus (GC 4541): 2 µg/mL (≈ 1.39 µM)
  MIC Staphylococcus aureus (GC 4542): 1 µg/mL (≈ 0.697 µM)
  MIC Staphylococcus aureus-SMITH (GC 4543): 2 µg/mL (≈ 1.39 µM)
  MIC Staphylococcus aureus (GC 4544): 2 µg/mL (≈ 1.39 µM)
  MIC Staphylococcus aureus (GC 4545): 2 µg/mL (≈ 1.39 µM)
  MIC Staphylococcus haemolyticus (GC 4546): 1 µg/mL (≈ 0.697 µM)
  MIC Coagulase Negative Staphylococcus (GC 4547): 2 µg/mL (≈ 1.39 µM)
  MIC Coagulase Negative Staphylococcus (GC 4548): 1 µg/mL (≈ 0.697 µM)
  MIC Coagulase Negative Staphylococcus (GC 4549): 2 µg/mL (≈ 1.39 µM)
  MIC Coagulase Negative Staphylococcus (GC 4551): 2 µg/mL (≈ 1.39 µM)
  MIC Coagulase Negative Staphylococcus (GC 6257): 1 µg/mL (≈ 0.697 µM)
Staphylococcus sp.; 18 hours at 35° C.
  MIC Staphylococcus aureus-SMITH (GC 4543): 2 µg/mL (≈ 1.39 µM)
Streptococcus sp.
  MIC Streptococcus agalactiae (GC 4564): 0.5 µg/mL (≈ 0.348 µM)
  MIC Streptococcus pneumoniae (GC 1894): <0.06 µg/mL
  MIC Streptococcus pneumoniae (GC 4565): 0.25 µg/mL (≈ 0.174 µM)
  MIC Streptococcus pneumonine (ATCC 6301): 0.12 µg/mL (≈ 0.0836 µM)
  MIC Streptococcus pyogenes (GC 4563): 0.5 µg/mL (≈ 0.348 µM)
